Reference: BindingDB's records for doi:10.1021/jm801211c (Intervet Innovation, 2009)

Target: Mu-type opioid receptor (Homo sapiens, UniProt P35372)
Assay: Mu Opioid Receptor Binding Assay and Antagonist Functionality Assay
Conditions: pH 7.4; 22 °C
Experimental: In the binding assays, the results were expressed as percent inhibition of the control radioligand specific binding. The IC50 values (concentration causing a half maximal inhibition of control specific binding) were determined by non-linear regression analysis of the competition curves using Hill equation curve fitting. The inhibition constants (Ki) were calculated from the Cheng Prusoff equation. EC50/IC50 measures the antagonist activities on mu-agonist triggered luminescence in AequoScreen cells.

Sequence of Mu-type opioid receptor (P35372 whole entry): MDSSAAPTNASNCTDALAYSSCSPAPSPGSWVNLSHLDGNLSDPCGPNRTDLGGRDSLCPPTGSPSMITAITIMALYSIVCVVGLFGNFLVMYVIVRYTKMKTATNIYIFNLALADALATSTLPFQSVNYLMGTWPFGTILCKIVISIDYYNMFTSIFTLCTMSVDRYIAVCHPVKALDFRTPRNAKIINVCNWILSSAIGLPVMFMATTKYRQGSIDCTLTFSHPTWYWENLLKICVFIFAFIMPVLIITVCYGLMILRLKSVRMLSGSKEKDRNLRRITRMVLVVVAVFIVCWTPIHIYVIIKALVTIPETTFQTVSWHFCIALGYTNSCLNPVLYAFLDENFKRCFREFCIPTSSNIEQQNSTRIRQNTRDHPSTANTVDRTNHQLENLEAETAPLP

SMILES	EC50
CC(C)N[C@@H]1CCn2c(=O)[nH]c3cccc(c32)[C@H]1O [(9R,10R)-9-hydroxy-10-(propan-2-ylamino)-1,3-diazatricyclo[6.4.1.0^{4,13}]trideca-4(13),5,7-trien-2-one]	> 1000 µM
CC(C)N[C@H]1CCn2c(=O)[nH]c3cccc(c32)[C@@H]1O [(9S,10S)-9-hydroxy-10-(propan-2-ylamino)-1,3-diazatricyclo[6.4.1.0^{4,13}]trideca-4(13),5,7-trien-2-one]	140 µM
